Several values for one entry are separate records, joined by “and”; a condition that tells them apart may be missing. Equal entries are not always repeated. Where two headings read alike, the source gives them in different places.
Tests used:
[1] = molecular target: T1, hepatic Glc-6-Pase system (Homo sapiens, UniProt O43826); assay: Glc-6-Pase hydrolysis in intact human liver microsomes (phosphate release); assay type: biochemical; conditions: for Percentage inhibition of G6Pase: each compound at its naturally occurring concentration in 0.6 mM extract, 2 mM substrate; for Contribution to Glc-6-Pase system inhibition by the green coffee extract: inhibition of compound divided by inhibition of 0.6 mM total CGAs from the extract
T1 construct: Glc-6-Pase hydrolysis in intact human liver microsomes; tissue BD Biosciences; host or cells: pooled human liver microsomes, intact
T1 sequence (O43826 1-429): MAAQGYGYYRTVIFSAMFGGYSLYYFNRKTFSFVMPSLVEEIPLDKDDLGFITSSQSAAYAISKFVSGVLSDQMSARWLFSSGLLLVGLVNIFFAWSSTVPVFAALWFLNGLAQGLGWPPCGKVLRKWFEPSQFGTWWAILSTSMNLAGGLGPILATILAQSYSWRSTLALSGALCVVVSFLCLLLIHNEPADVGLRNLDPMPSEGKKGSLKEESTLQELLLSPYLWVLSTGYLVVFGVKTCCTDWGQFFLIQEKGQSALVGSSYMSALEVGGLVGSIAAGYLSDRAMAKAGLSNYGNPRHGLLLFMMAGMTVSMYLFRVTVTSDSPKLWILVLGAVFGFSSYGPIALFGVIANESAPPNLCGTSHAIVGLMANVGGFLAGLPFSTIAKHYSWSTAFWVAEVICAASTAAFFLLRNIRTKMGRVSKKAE
Procedure: A secondary purpose of Example 8 was to determine the inhibitory effects of a series of structurally-related compounds in the extract, such as caffeoylquinic acids and caffeoylferuloylquinic acids. Example 8 tested whether the extract could inhibit the hepatic Glc-6-Pase system by measuring enzymatic activity in human liver microsomes. These experiments were conducted with or without the extract at final CGA concentrations of 0.2, 0.4 and 0.6 mM. The effect of the extract on Glc-6-Pase activity was tested as a function of […] substrate concentration (2-10 mM).
Measurement of Glc-6-Pase Activity in Microsomes: Microsomal Glc-6-Pase activity was measured on the basis of the rate of release of phosphate under the assay conditions that were described by Wallert et al., Kinetic analysis of glucose-6-phosphatase: an investigative approach to carbohydrate metabolism and kinetics. Biochem. Mol. Biol. Educ. 2001, 29, 199-203. The enzyme assays were performed at 37° C. in a final volume of […] containing 100 mM cacodylic acid, pH 6.5 and concentrations of the substrate […] ranging from 2 to 10 mM.
The reaction was started by adding intact microsomes and was stopped with the addition of 3.2 mL of colorimetric reagent [9 volumes of molybdate (0.42% ammonium molybdate in 1 N H2SO4), 2 volumes of 5% SDS and 1 volume of 10% ascorbic acid, freshly prepared and stored on ice for a maximum of 6 h]. All samples were incubated for 30 minutes at 45° C., and the absorbance of the phosphate-molybdate complex was measured at 820 nm.
Microsomal intactness was quantified by measuring Man-6-Pase activity. Anion, W J. Measurement of intactness of rat liver endoplasmic reticulum. Methods Enzymol. 1989, 174, 58-67. In a preliminary study, Glc-6-Pase activity in intact human liver microsomes was determined on the basis of microsomal protein concentration and incubation time to obtain optimal experimental conditions, that is, 100 μg of microsomal proteins and 5 minutes of incubation (data not shown). Quantification was performed at optimal wavelengths (330 nm) for the CGAs during chromatographic separation. Samples were filtered (0.45 μm), and 2 μL was injected directly. The standard deviation for three analyses of the same sample was <5% for all compounds.
Preparation of Test Compounds: Stock solutions of test compounds were prepared in ultrapure water (pH 6.5) and diluted with assay reagent to the final concentrations.
Enzymatic activity was expressed as micromoles of phosphate released per minute per milligram of protein. Results were expressed as means±standard deviation (SD) of three independent experiments. Percentage of inhibition of Glc-6 Pase system activity was calculated by dividing the initial rate of reaction in microsomes that were treated with individual compounds by the initial rate of reaction in untreated microsomes. […] Statistical analysis was performed using an ANOVA test followed by a post hoc Tukey test under a normality assumption (Shapiro Wilk) or Kruskall Wallis nonparametric test followed by Bonferroni adjusted Mann-Whitney test otherwise; p<0.05 was considered to be significant. […]

[2] = Plasma pharmacokinetics of CGA and metabolites after 400 mg green coffee extract, ten volunteers; assay type: in vivo, human; conditions: for Cmax / AUC / Tmax: plasma, 400 mg green coffee extract oral, mean ± SD, n = 10; for molar ratio 3,5-diCQA:4,5-diCQA:3,4-diCQA in plasma / molar ratio 5-CQA:4-CQA:3-CQA in plasma: ratios of AUC in plasma; for contribution to AUC of total phenolic compounds in plasma: mean values of plasma AUC; for contribution to total phenolics in plasma: after green coffee extract consumption
Source text: In a further phase of the study, ten non-smoker volunteers (22-55 y), five male and five female, were recruited. […] They were asked to eat only animal foods, refined cereal foods and artificial beverages. […] Blood samples were collected into heparin-containing tubes. Baseline blood aliquots were used to determine hematocrit and hemoglobin levels by standard methods. Plasma samples were obtained by centrifugation of the blood samples immediately after being drawn. Urine samples were also collected at baseline interval (minus 2-0 h) and at intervals of 0-2 h; 2-4 h; 4-6 h and 6-8 h after coffee consumption into appropriate plastic containers. Total urine volume was measured for each collection period. Plasma and urine aliquots for determination of CGA were acidified with HCl and kept frozen in liquid nitrogen until analyses. Urine aliquots for determination of creatinine were acidified with HCl and kept at −20° C. until analyses.
(§1) Results of CGA and phenolic acids in urine were normalized by creatinine excretion.

[3] = Urinary excretion of CGA and metabolites after 400 mg green coffee extract, ten volunteers; assay type: in vivo, human
Procedure: In a further phase of the study, ten non-smoker volunteers (22-55 y), five male and five female, were recruited. Subjects were instructed to avoid consumption of phenolic-containing foods during the 48 h prior to the study. They were asked to eat only animal foods, refined cereal foods and artificial beverages. On the day of the study, after 10-12 h overnight fasting, an I.V. catheter was inserted into the antecubital vein and a baseline heparinized blood sample was obtained. […] Blood samples were collected into heparin-containing tubes. Baseline blood aliquots were used to determine hematocrit and hemoglobin levels by standard methods. Plasma samples were obtained by centrifugation of the blood samples immediately after being drawn. Urine samples were also collected at baseline interval (minus 2-0 h) and at intervals of 0-2 h; 2-4 h; 4-6 h and 6-8 h after coffee consumption into appropriate plastic containers. Total urine volume was measured for each collection period. Plasma and urine aliquots for determination of CGA were acidified with HCl and kept frozen in liquid nitrogen until analyses. Urine aliquots for determination of creatinine were acidified with HCl and kept at −20° C. until analyses.
as §1

Glc-6-Pase [4] = conditions: intact rat microsomes; cited from earlier work
Glc-6-Pase [5] = molecular target: T2, Glc-6-Pase (Rattus norvegicus, UniProt P43428); conditions: fully disrupted microsomes; cited from earlier work
T2 construct: host or cells: rat microsomes (liver)
T2 sequence (P43428 1-357): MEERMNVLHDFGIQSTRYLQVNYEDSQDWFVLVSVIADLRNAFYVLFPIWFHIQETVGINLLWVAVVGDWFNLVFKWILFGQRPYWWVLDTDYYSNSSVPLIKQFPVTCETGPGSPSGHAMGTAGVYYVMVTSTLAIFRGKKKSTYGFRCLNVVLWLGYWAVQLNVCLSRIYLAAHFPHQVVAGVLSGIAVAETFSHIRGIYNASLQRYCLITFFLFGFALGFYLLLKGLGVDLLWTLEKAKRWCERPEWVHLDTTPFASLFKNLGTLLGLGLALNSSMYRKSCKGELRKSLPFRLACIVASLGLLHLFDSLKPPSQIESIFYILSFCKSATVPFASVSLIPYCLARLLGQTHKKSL

[6] = both sexes, human, po, 400 mg, read-out: AUC
[7] = both sexes, human, po, 400 mg, read-out: Tmax

O=C(C=Cc1ccc(O)c(O)c1)OC1CC(O)(C(=O)O)CC(O)C1OC(=O)C=Cc1ccc(O)c(O)c1 (stereo not shown) [3,4-diCQA, 3,4-dicaffeoylquinic acid]
Percentage inhibition of G6Pase [1]: 6.9 ± 4.3%
Contribution to Glc-6-Pase system inhibition by the green coffee extract [1]: 19%
Cmax ([2]; both sexes, human, po, 400 mg): 1500 ± 1600 nM
AUC [2, 6]: 5 ± 4.9 µM·h
Tmax [2, 7]: 2.6 ± 1.8 h
molar ratio 3,5-diCQA:4,5-diCQA:3,4-diCQA in plasma [2]: 1.0

O=C(C=Cc1ccc(O)c(O)c1)OC1CC(O)(C(=O)O)CC(OC(=O)C=Cc2ccc(O)c(O)c2)C1O (stereo not shown) [3,5-diCQA, 3,5-dicaffeoylquinic acid]
Contribution to Glc-6-Pase system inhibition by the green coffee extract [1]: 0%
Cmax ([2]; both sexes, human, po, 400 mg): 2700 ± 2700 nM
AUC [2, 6]: 8.7 ± 8.3 µM·h
Tmax [2, 7]: 3.2 ± 2.5 h
molar ratio 3,5-diCQA:4,5-diCQA:3,4-diCQA in plasma [2]: 1.7

O=C(C=Cc1ccc(O)c(O)c1)OC1CC(O)(C(=O)O)CC(O)C1O (stereo not shown) [3-CQA, 3-caffeoylquinic acid]
Contribution to Glc-6-Pase system inhibition by the green coffee extract [1]: 0%
contribution to AUC of total phenolic compounds in plasma [2]: 5.2%
AUC [2]: 3.0 ± 4.5 µM·h
Cmax [2]: 900 ± 1400 nM
molar ratio 5-CQA:4-CQA:3-CQA in plasma [2]: 1.0

O=C(C=Cc1ccc(O)c(O)c1)OC1CC(O)(C(=O)O)CC(O)C1OC(=O)C=Cc1ccc(O)c(O)c1 (stereo not shown) [4,5-diCQA, 4,5-dicaffeoylquinic acid]
Percentage inhibition of G6Pase [1]: 13% and 12.8 ± 2.6%
Contribution to Glc-6-Pase system inhibition by the green coffee extract [1]: 35%
AUC [2]: 6.8 ± 5.7 µM·h
Cmax [2]: 2500 ± 3000 nM
Tmax [2]: 3.3 ± 2.5 h
molar ratio 3,5-diCQA:4,5-diCQA:3,4-diCQA in plasma [2]: 1.4

O=C(C=Cc1ccc(O)c(O)c1)OC1C(O)CC(O)(C(=O)O)CC1O (stereo not shown) [4-CQA, 4-caffeoylquinic acid]
Percentage inhibition of G6Pase [1]: 14% and 14.4 ± 1.2%
Contribution to Glc-6-Pase system inhibition by the green coffee extract [1]: 40%
total urinary excretion ([3]; human, in vivo): 0.04 µmol
Cmax ([2]; both sexes, human, po, 400 mg): 1400 ± 1100 nM
AUC [2, 6]: 4.3 ± 5.4 µM·h
Tmax [2, 7]: 3.6 ± 2.2 h
contribution to AUC of total phenolic compounds in plasma [2]: 7.5%
molar ratio 5-CQA:4-CQA:3-CQA in plasma [2]: 1.4

O=C(C=Cc1ccc(O)c(O)c1)OC1CC(O)(C(=O)O)CC(O)C1O (stereo not shown) [5-CQA, 5-caffeoylquinic acid]
Percentage inhibition of G6Pase [1]: 9.2 ± 1.4%
Contribution to Glc-6-Pase system inhibition by the green coffee extract [1]: 25%
content in baseline urine, variation among the subjects ([3]; both, human, in vivo): up to 0.35 μmol
contribution to AUC of total phenolic compounds in plasma [2]: 31.3%
AUC [2]: 17.9 ± 15.3 µM·h
Cmax [2]: 5900 ± 4200 nM
Tmax [2]: 3.3 ± 2.4 h
molar ratio 5-CQA:4-CQA:3-CQA in plasma [2]: 6.0
inhibition of Glc-6-Pase (Glc-6-Pase [4]): inhibits Glc-6-Pase
inhibition of Glc-6-Pase (Glc-6-Pase [5]): no effect

O=C(O)/C=C/c1ccc(O)c(O)c1 [Caffeic acid]
contribution to total phenolics in plasma [2]: 6.6%
Cmax ([2]; both sexes, human, po, 400 mg): 1100 ± 900 nM
AUC [2, 6]: 3.8 ± 3.2 µM·h
Tmax [2, 7]: 3.6 ± 2.1 h

COc1cc(/C=C/C(=O)O)ccc1O [Ferulic acid]
contribution to total phenolics in plasma [2]: 6.2%
Cmax ([2]; both sexes, human, po, 400 mg): 800 ± 300 nM
AUC [2, 6]: 3.6 ± 1.5 µM·h
Tmax [2, 7]: 2.9 ± 1.8 h

O=C(O)c1cc(O)c(O)c(O)c1 [Gallic Acid]
total urinary excretion ([3]; subject 1, 0-8 h after consumption): 43.47 µmol
total urinary excretion ([3]; subject 1, Baseline): 9.24 µmol
total urinary excretion ([3]; subject 2, 0-8 h after consumption): 18.67 µmol
total urinary excretion ([3]; subject 2, Baseline): 3.55 µmol
total urinary excretion ([3]; subject 3, 0-8 h after consumption): 9.41 µmol
total urinary excretion ([3]; subject 3, Baseline): 1.86 µmol
total urinary excretion ([3]; subject 4, 0-8 h after consumption): 7.98 µmol
total urinary excretion ([3]; subject 4, Baseline): 0.70 µmol
total urinary excretion ([3]; subject 5, 0-8 h after consumption): 25.45 µmol
total urinary excretion ([3]; subject 5, Baseline): 10.19 µmol
total urinary excretion ([3]; subject 6, Baseline): 10.57 µmol
total urinary excretion ([3]; subject 7, 0-8 h after consumption): 14.03 µmol
total urinary excretion ([3]; subject 7, Baseline): 0.25 µmol
total urinary excretion ([3]; subject 8, 0-8 h after consumption): 68.21 µmol
total urinary excretion ([3]; subject 8, Baseline): 6.79 µmol
total urinary excretion ([3]; subject 9, 0-8 h after consumption): 57.69 µmol
total urinary excretion ([3]; subject 9, Baseline): 1.68 µmol
total urinary excretion ([3]; subject 10, 0-8 h after consumption): 112.22 µmol
total urinary excretion ([3]; subject 10, Baseline): 25.25 µmol

COc1ccc(/C=C/C(=O)O)cc1O [Isoferulic acid]
contribution to total phenolics in plasma [2]: 6.1%
Cmax ([2]; both sexes, human, po, 400 mg): 900 ± 200 nM
AUC [2, 6]: 3.5 ± 1.9 µM·h
Tmax [2, 7]: 2.9 ± 1.8 h

O=C(O)c1ccc(O)c(O)c1 [Protocatechuic acid]
identification in urine ([3]; human, in vivo): not identified

O=C(O)c1ccccc1 [benzoic acid]
identification in urine ([3]; before or after the extract consumption): not identified

COc1cc(CCC(=O)O)ccc1O [dihydroferulic acid]
identification in urine ([3]; human, in vivo): not identified

O=C(O)CNC(=O)c1ccccc1 [hippuric acid]
identification in urine ([3]; human, in vivo): not identified

O=C(O)/C=C/c1ccc(O)cc1 [p-coumaric acid]
contribution to total phenolics in plasma [2]: 1.4%
Cmax ([2]; both sexes, human, po, 400 mg): 400 ± 30 nM
AUC [2, 6]: 0.8 ± 0.2 µM·h
Tmax [2, 7]: 2.5 ± 1.8 h

Source: patent US10092613B2 (NATUREX, S.A., priority 2008, dated 2018)
